Source: patent publication US4644000A, “Microbicidal agents containing 2-(1H-pyrazol-1-yl)-4-(3H)-quinazolinones” (Bayer Aktiengesellschaft, priority 1984, dated 1987)
Converted amounts (≈) assume the structure as drawn.

Columns and labels:
Polyporus versicolor = test: MIC in beerwort/peptone agar, Polyporus versicolor; format: cell-based; settings: 28° C., 60 to 70% relative humidity, 2 weeks; for MIC: Trametes versicolor, 336 h
Method: (§1) Active compounds according to the invention are added in concentrations of 0.1 mg/1 to 5,000 mg/1 to an agar prepared from beerwort and peptone. After storage at 28° C. and 60 to 70% relative atmospheric humidity for 2 weeks, the MIC is determined. The MIC is the lowest concentration of active compound at which no growth at all by the species of microbes used takes place, and is given in Table 1.

Coniophora puteana = test: MIC in beerwort/peptone agar, Coniophora puteana; format: cell-based; settings: 28° C., 60 to 70% relative humidity, 2 weeks; for MIC: Coniophora puteana, 336 h
Method: as §1

slime organisms = test: MIC against slime organisms in Allens nutrient solution; format: cell-based; settings: 504 h, about 10^6 germs/ml, 3 weeks at room temperature
Method: Compounds according to the invention are used in concentrations of in each case 0.1 to 100 mg/l in Allens nutrient solution (Arch. Mikrobiol. 17, 34 to 53 (1952)), which contains, in 4 l of sterile water, 0.2 g of ammonium chloride, 4.0 g of sodium nitrate, 1.0 g of dipotassium hydrogen phosphate, 0.2 g of calcium chloride, 2.05 g of magnesium sulphate, 0.02 g of iron chloride and 1% of caprolactam, dissolved in a little acetone. Shortly beforehand, the nutrient solutions are infected with slime organisms (about 10^6 germs/ml), which have been isolated from the spinning water circulations used in the production of polyamide. Nutrient solutions which contain the minimum inhibitory concentration (MIC) or higher concentrations of active compound are still completely clear after culture for 3 weeks at room temperature, that is to say the pronounced reproduction of the microbes and slime formation noticeable after 3 to 4 days in nutrient solutions containing no active compounds are absent.

Chaetomium globosum = test: MIC in beerwort/peptone agar, Chaetomium globosum; format: cell-based; settings: 28° C., 60 to 70% relative humidity, 2 weeks; for MIC: Chaetomium globosum, 336 h
Method: as §1

Trichoderma viride = test: MIC in beerwort/peptone agar, Trichoderma viride; format: cell-based; settings: 28° C., 60 to 70% relative humidity, 2 weeks; for MIC: Trichoderma viride, 336 h
Method: as §1

Aspergillus niger = test: MIC in beerwort/peptone agar, Aspergillus niger; format: cell-based; settings: 28° C., 60 to 70% relative humidity, 2 weeks; for MIC: Aspergillus niger, 336 h
Method: as §1

Lentinus tigrinus = test: MIC in beerwort/peptone agar, Lentinus tigrinus; format: cell-based; settings: 28° C., 60 to 70% relative humidity, 2 weeks; for MIC: Lentinus tigrinus, 336 h
Method: as §1

Aureobasidium pullulans = test: MIC in beerwort/peptone agar, Aureobasidium pullulans; format: cell-based; settings: 28° C., 60 to 70% relative humidity, 2 weeks; for MIC: Aureobasidium pullulans, 336 h
Method: as §1

Sclerophoma pityophila = test: MIC in beerwort/peptone agar, Sclerophoma pityophila; format: cell-based; settings: 28° C., 60 to 70% relative humidity, 2 weeks; for MIC: Sydowia polyspora, 336 h
Method: as §1

Alternaria tenuis = test: MIC in beerwort/peptone agar, Alternaria tenuis; format: cell-based; settings: 28° C., 60 to 70% relative humidity, 2 weeks; for MIC: Alternaria alternata, 336 h
Method: as §1

Penicillium glaucum = test: MIC in beerwort/peptone agar, Penicillium glaucum; format: cell-based; settings: 28° C., 60 to 70% relative humidity, 2 weeks; for MIC: Penicillium, 336 h
Method: as §1

[1] = Water solubility of potassium salt; format: physicochemical
Method: 12.3 g (0.05 mole) of 2-(1H-pyrazol-1-yl)-6-chloro-4(3H)-quinazolinone (=compound from Example 4) are stirred in 1 liter of water with 45 ml of 1 N KOH for 1 hour. Residues of the starting material which have remained undissolved are removed, the clear solution is evaporated in vacuo and the solid residue is dried at 110° C. to give 12.2 g of water-soluble potassium salt of the quinazolinone employed.

[2] = system: microbes (bacteria, yeasts and moulds); test: Preservation of cooling lubricant use dilutions; settings: 3-5% strength use dilutions, contaminated each day for 3 months; 3% preservative in cooling lubricant
Method: 3% of a preservative composed of 90% of benzyl alcohol mono(poly)hemiformaland 10% of active compound E is added to a cooling lubricant based on mineral oil.
3-5% strength use dilutions of the cooling lubricant are contaminated massively each day for 3 months with microbes (bacteria, yeasts and moulds) isolated from microbially decayed cooling lubricant use dilutions.

fungi = test: Mould resistance of PVA emulsion paint films (paint fungicide test, Report 219 Defense Standards Laboratories); settings: 28° to 30° C., 90 to 95% relative humidity, evaluated after 3 weeks; active compound E: even after ageing
Method: Testing is carried out in accordance with the method in Report 219 of the Defense Standards Laboratories Maribyrnong/Australia as follows: a smooth card is coated on both sides with the paint to be tested and is dried at room temperature for 8 days. For ageing, part of the paint film is kept in running water of 24° for 24 hours, or aerated with fresh air of 40° to 60° C. for 8 days, or subjected to a dry Xenon test for 110 hours. Pieces of 5×5 cm cut out from the samples thus prepared are placed individually on a glucose nutrient medium in Petri dishes and contaminated with a spore suspension of the following fungi: Aspergillus niger, Aureobasidium pullulans, Alternaria tenuis, Penicillium citrinum, Stachybotrys atra, Paecilomyces varioti, Cladosporium herbarum, Aspergillus ustus and Aspergillus flavus.
The contaminated dishes are stored at 28° to 30° C. and 90 to 95% relative atmospheric humidity, and are evaluated after 3 weeks. Paint films are regarded as mould-resistant if the samples remain free from fungi after these tests.
A commercially available emulsion paint based on PVA is tested for mould resistance by the test method described above.

| Compound | MIC (Polyporus versicolor) | MIC (Coniophora puteana) | MIC (slime organisms) | MIC (Chaetomium globosum) | MIC (Trichoderma viride) | MIC (Aspergillus niger) | MIC (Lentinus tigrinus) | MIC (Aureobasidium pullulans) | MIC (Sclerophoma pityophila) | MIC (Alternaria tenuis) | MIC (Penicillium glaucum) | other results |
| --- | --- | --- | --- | --- | --- | --- | --- | --- | --- | --- | --- | --- |
| O=c1[nH]c(-n2cccn2)nc2ccccc12 [Active compound A, 2-(1H-Pyrazol-1-yl)-4-(3H)-quinazolinone] | 20 µg/mL (≈ 94.2 µM) | 1 µg/mL (≈ 4.71 µM) | 30 µg/mL (≈ 141 µM) | 100 µg/mL (≈ 471 µM) | 100 µg/mL (≈ 471 µM) | 100 µg/mL (≈ 471 µM) | 20 µg/mL (≈ 94.2 µM) | 5 µg/mL (≈ 23.6 µM) | 20 µg/mL (≈ 94.2 µM) | 20 µg/mL (≈ 94.2 µM) | 100 µg/mL (≈ 471 µM) | – |
| O=c1[nH]c(-n2cccn2)nc2ccc(Cl)cc12 [Example 32, 2-(1H-pyrazol-1-yl)-6-chloro-4(3H)-quinazolinone] | – | – | – | – | – | – | – | – | – | – | – | water solubility (in words) [1]: water-soluble |
| Cc1cnn(-c2nc3ccc(Cl)cc3c(=O)[nH]2)c1 [Active compound G, 2-(4-Methyl-1H-pyrazol-1-yl)-6-chloro-4-(3H)-quinazolinone] | – | 1 µg/mL (≈ 3.84 µM) | – | 1 µg/mL (≈ 3.84 µM) | – | – | – | – | 5 µg/mL (≈ 19.2 µM) | – | 7 µg/mL (≈ 26.9 µM) | – |
| CCc1cnn(-c2nc3ccccc3c(=O)[nH]2)c1 [Active compound F, 2-(4-Ethyl-1H-pyrazol-1-yl)-4(3H)-quinazolinone] | 30 µg/mL (≈ 125 µM) | – | 30 µg/mL (≈ 125 µM) | < 20 µg/mL | 50 µg/mL (≈ 208 µM) | 50 µg/mL (≈ 208 µM) | 20 µg/mL (≈ 83.2 µM) | 50 µg/mL (≈ 208 µM) | 50 µg/mL (≈ 208 µM) | – | 35 µg/mL (≈ 146 µM) | – |
| Cc1ccnn1-c1nc2ccccc2c(=O)[nH]1 [Active compound D, 2-(5-Methyl-1H-pyrazol-1-yl)-4(3H)-quinazolinone] | 15 µg/mL (≈ 66.3 µM) | < 0.1 µg/mL | 75 µg/mL (≈ 332 µM) | 5 µg/mL (≈ 22.1 µM) | 50 µg/mL (≈ 221 µM) | 35 µg/mL (≈ 155 µM) | 20 µg/mL (≈ 88.4 µM) | 35 µg/mL (≈ 155 µM) | 50 µg/mL (≈ 221 µM) | 15 µg/mL (≈ 66.3 µM) | 35 µg/mL (≈ 155 µM) | – |
| Cc1cnn(-c2nc3ccccc3c(=O)[nH]2)c1 [Active compound B, 2-(4-Methyl-1H-pyrazol-1-yl)-4(3H)-quinazolinone] | < 10 µg/mL | – | – | < 20 µg/mL | 50 µg/mL (≈ 221 µM) | 50 µg/mL (≈ 221 µM) | < 10 µg/mL | 10 µg/mL (≈ 44.2 µM) | 50 µg/mL (≈ 221 µM) | 75 µg/mL (≈ 332 µM) | 7 µg/mL (≈ 30.9 µM) | – |
| benzyl alcohol mono(poly)hemiformal | – | – | – | – | – | – | – | – | – | – | – | state of cooling lubricant use dilutions at the end of the testing period [2]: show attack by mould at the end of the testing period |
| Cc1ccn(-c2nc3ccccc3c(=O)[nH]2)n1 [Active compound C, 2-(3-Methyl-1H-pyrazol-1-yl)-4(3H)-quinazolinone] | 35 µg/mL (≈ 155 µM) | < 0.1 µg/mL | 100 µg/mL (≈ 442 µM) | 5 µg/mL (≈ 22.1 µM) | 50 µg/mL (≈ 221 µM) | 35 µg/mL (≈ 155 µM) | 20 µg/mL (≈ 88.4 µM) | 50 µg/mL (≈ 221 µM) | 10 µg/mL (≈ 44.2 µM) | 15 µg/mL (≈ 66.3 µM) | 75 µg/mL (≈ 332 µM) | – |
| Isomer mixture of 2-(3- and 5-methyl-1H-pyrazol-1-yl)-4(3H)-quinazolinone [Active compound E] | – | – | – | – | – | – | – | – | – | – | – | MIC value, Polyporus versicolor (Polyporus versicolor): 35 µg/mL; MIC value, Coniophora puteana (Coniophora puteana): 1 µg/mL; MIC value, Chaetomium globosum (Chaetomium globosum): 3 µg/mL; MIC value, Trichoderma viride (Trichoderma viride): 75 µg/mL; MIC value, Aspergillus niger (Aspergillus niger): 50 µg/mL; MIC value, Lentinus tigrinus (Lentinus tigrinus): 20 µg/mL; content of fungicide at which PVA emulsion paint films are mould-resistant (fungi): 0.5%; MIC value, Aureobasidium pullulans (Aureobasidium pullulans): 15 µg/mL; MIC value, Sclerophoma pityophila (Sclerophoma pityophila): 2 µg/mL; MIC value, Alternaria tenuis (Alternaria tenuis): 75 µg/mL; MIC value, Penicillium glaucum (Penicillium glaucum): 35 µg/mL |
| CN(C)C(=S)SSC(=S)N(C)C [tetramethylthiuram disulphide, reference compound] | – | – | – | – | – | – | – | – | – | – | – | content of fungicide at which PVA emulsion paint films are mould-resistant (fungi): ≥ 4% |
| O=c1[nH]c(-n2cccn2)nc2cc(Cl)ccc12 [Active compound H, 2-(1H-Pyrazol-1-yl)-7-chloro-4(3H)-quinazolinone] | – | – | 100 µg/mL (≈ 405 µM) | – | – | – | – | – | – | – | – | – |
